Tests used:
Type in all cases: cell-based, human
[1] = system: SLE/CLE CD4+ T-cell clones; assay: T-cell clone reactivity (BrdU, HLA-matched B-LCLs pulsed with peptide); conditions: clones from one SLE and one CLE patient
Experimental: PBMCs were purified, from EDTA-treated blood, on Ficoll-Hypaque (Pharmacia Fine Chemicals, Uppsala, Sweden) were incubated (10^5 cells/well) in 96-well-flat-bottom-microplates (BD) in T cell-medium (RPMI 1640, 10% heat-inactivated human serum, HS, Gibco), 2 mM L-glutamine, 10 U/mL penicillin, and 100 μg/mL streptomycin), with/without peptides. We performed assays on fresh cells, within 1-to-3 hours from collection, or on PBMCs frozen in 90% FCS-10%DMSO, whose viability we assessed by Trypan blue exclusion, at inverted microscope. Recovery of live cells was between 65 and 85 % of the frozen number. At day3 and 5, BrdU was added (1 μg/mL). BrdU-incorporation was detected by APC-labeled anti-BrdU antibody (BD Pharmingen), after surface staining by flow cytometry. Internal control for T-cell viability and proliferation was PHA treatment (2 μg/mL). SI for proliferation was calculated by dividing percent of BrdU-staining in the presence of each peptide used to stimulate cells by percent of BrdU-staining in the absence of peptide stimulation. SI for proliferation was considered positive when>3. This cut-off was obtained by calculating the mean+2DS [1.5 + 2 (0.6)] (of the stimulation indexes calculated as above) of the proliferation of HD. […]
Assays were repeated twice with each patient. […] Ror-ɣt and Bcl-6 were measured by intracellular staining and flow cytometry, after 48 hours culture with LL37 or control antigen, and were analyzed on CD38highCD4 T-cells. […]
PBMCs were stimulated (2x10^6 cells/mL) with LL37 for 7 days and re-stimulated (10 days) with LL37-pulsed (10 µg/mL) autologous-ɣ-irradiated-(30Gy)-PBMCs in T-cell medium in the presence of human/recombinant (hr)IL-2 (Boehringer-Mannheim, Indian, USA). T cell lines-specificity was analyzed by using peptide-pulsed (0.1-10 µg/mL) autologous-irradiated PBMCs (30Gy) or lymphoblastoid-cell-lines (B-LCLs) (150Gy, 33). […]
analyzed by flow-cytometry (after staining by BrdU-detection kit, BD Pharmingen). […] Clones reactivity and HLA-restriction were analyzed using HLA-matched-homozigous B-LCLs, pulsed with […]

CD4 T-cells = assay: Peptide-MHC-tetramer staining of PBMC after seven-day culture; conditions: for peptide-MHC-tetramer staining in HLA-matched HD: HLA-matched HD PBMCs; for peptide-MHC-tetramer staining at remission: SLE2, SLE22 and CLE6 PBMCs at remission
Experimental: Peptide-MHC-tetramer staining of T-cell lines/clones and blood T-cells
Peptide-MHC-tetramers (Table S4) were from ProImmune, (UK), TC Metrix, (CH), Benaroya,
(USA) and ImmunAware (Denmark). Staining was performed for 40 minutes at 37°C, followed by
staining for CD4 (4°C, 20 minutes). Before flow cytometry-acquisition, cells were labelled with
PercP-conjugated 7-AAD to exclude dead cells. […]

[2] = system: CD4 T-cells in PBMC cultures; assay: TFH/Th17 marker expression by flow cytometry (CXCR5, Bcl-6, Ror-γt); conditions: for Bcl-6 expression / Ror-ɣt expression: CD38hi T-cells, 48 hours; for Bcl-6 expression: SLE but not psoriasis; for Ror-ɣt expression: both SLE and psoriasis; for CXCR5 expression by proliferating T-cells: SLE (but not in psoriasis)
Experimental: PBMCs were purified, from EDTA-treated blood, on Ficoll-Hypaque (Pharmacia Fine Chemicals, Uppsala, Sweden) were incubated (10^5 cells/well) in 96-well-flat-bottom-microplates (BD) in T cell-medium (RPMI 1640, 10% heat-inactivated human serum, HS, Gibco), 2 mM L-glutamine, 10 U/mL penicillin, and 100 μg/mL streptomycin), with/without peptides. We performed assays on fresh cells, within 1-to-3 hours from collection, or on PBMCs frozen in 90% FCS-10%DMSO, whose viability we assessed by Trypan blue exclusion, at inverted microscope. Recovery of live cells was between 65 and 85 % of the frozen number. At day3 and 5, BrdU was added (1 μg/mL). BrdU-incorporation was detected by APC-labeled anti-BrdU antibody (BD Pharmingen), after surface staining by flow cytometry. Internal control for T-cell viability and proliferation was PHA treatment (2 μg/mL). SI for proliferation was calculated by dividing percent of BrdU-staining in the presence of each peptide used to stimulate cells by percent of BrdU-staining in the absence of peptide stimulation. SI for proliferation was considered positive when>3. This cut-off was obtained by calculating the mean+2DS [1.5 + 2 (0.6)] (of the stimulation indexes calculated as above) of the proliferation of HD.
Basal % of proliferation was set using, as reference, an isotype matched antibody staining (APC-isotype control and) and never exceed 5% of cell proliferation value (background proliferation).
Assays were repeated twice with each patient. In rare cases in which background proliferation exceed antigen-specific proliferation the assay was repeated three times. Concomitant phenotype analysis of LL37-responder T-cells included staining for CD4, CD8, CXCR5, PD1, ICOS, CCR6. Ror-ɣt and Bcl-6 were measured by intracellular staining and flow cytometry, after 48 hours culture with LL37 or control antigen, and were analyzed on CD38highCD4 T-cells. […]

LLGDFFR(cit)KSKEKIGKEFKR(cit)IVQR(cit)IKDFLR(cit)NLVPR(cit)TES [cit-LL37, citrullinated LL37 (citrullinated at all five arginin positions)]
T-cell clone reactivity [1]: Other clones proliferated to both native LL37 and cit-LL37
peptide-MHC-tetramer staining in HLA-matched HD (CD4 T-cells; seven-day culture): did not stain significantly
peptide-MHC-tetramer staining at remission (CD4 T-cells): still observed some staining upon stimulation with cit-LL37
frequency of peptide-MHC-tetramer positive T-cells, cit-LL37 versus native-LL37 (CD4 T-cells; three patients (SLE2, SLE22, CLE6), seven-day culture): higher upon culture of PBMCs with cit-LL37 compared to native-LL37
Bcl-6 expression [2]: could up-regulate Bcl-6
Ror-ɣt expression [2]: could upregulate Ror-ɣt expression
CXCR5 expression by proliferating T-cells [2]: significant up-regulation

LLGDFFRKSKEKIGKEFKRIVQRIKDFLRNLVPRTES [LL37, native LL37, antimicrobial peptide, 37 aa]
T-cell clone reactivity [1]: Some of the T-cell clones proliferated exclusively after stimulation with native LL37
peptide-MHC-tetramer staining in HLA-matched HD (CD4 T-cells; seven-day culture): did not stain significantly
peptide-MHC-tetramer staining at remission (CD4 T-cells): not staining for native-LL37
Bcl-6 expression [2]: could up-regulate Bcl-6
Ror-ɣt expression [2]: could upregulate Ror-ɣt expression
CXCR5 expression by proliferating T-cells [2]: significant up-regulation
